From US5455267A, “Chromone derivative, and aldose reductase inhibitor comprising said compound as active component” (Tsumura & Co., priority 1990, dated 1995) come the findings set out here.

Counter-ions that a name gives are not always drawn. Like-named read-outs stand apart in the source and are kept apart here.

In one test the target is T1, aldose reductase (Rattus norvegicus, UniProt P07943).
T1 construct: The crystalline lenses were homogenized in 135 mM sodium-potassium-phosphate buffer (pH 7.0) and centrifuged; from tissue; host or cells: lens of 6 week-old Wistar rats (30,000 rpm supernatant of homogenate)
The test can be described thus: Determination of Aldose Reductase Activity (In Vitro). It counts as biochemical, rat (Wistar). Particulars: for inhibition at 10 µM: at the concentration of 10 μM, read-out: Inhibition rate %. On the procedure: 6 week-old Wistar rats were sacrificed under ether anesthesia, and immediately lenses were removed and stored at -20° C. The crystalline lenses were homogenized in 135 mM sodium-potassium-phosphate buffer (pH 7.0) and centrifuged for 30 min. at 30,000 rpm. The supernatant was used as an aldose-reductase solution. The above procedure was carried out at 4° C. The enzyme solution was stored at -20° C.
The measurement of aldose reductase activity was conducted according to the method as described by Duffane et al. (Biochemical Medicine, 32:99-105 (1984)).
That is, 100 gl of the above enzyme solution and 100 gl of a solution prepared by dissolving a compound obtained in the following example to a final concentration of from 1.0×10^-5 to 4.0×10^-7 M in dimethylsulfoxide (DMSO) were added to 800 gl of 135 mM sodium-potassium-phosphate buffer (pH 7.0) containing 100 mM lithium sulfate, 0.03 mM NADPH (reduced form of nicotinamide adeninc dinucleotide phosphate) and 20 mM glucose as a substrate. The sample was allowed to react for 30 min. at 30° C. The reaction was stopped by addition of 0.3 ml of 0.5N hydrochloric acid. The NADP (oxided form of nicotinamide adenine dinucleotide) formed during the above reaction was converted into a fluorescent substance by addition of 1 ml of 6N sodium hydroxide containing 10 mM imidazole. 30 min. thereafter, the sample was measured for fluorescence intensity at the fluorescence wavelength of 460 nm (excitation wavelength: 360 nm) using a fluorescence photometer F-4000 (manufactured by Hitachi, Ltd.) at room temperature. A sample containing DMSO in place of the present compound was used as a control, and its fluorescence intensity was determined in the same manner as above.
Aldose reductase is an enzyme to convert DL-glyceraldehyde or glucose into polyol in the presence of NADPH as a coenzyme. As this reaction proceeds, NADPH is converted into NADP, so that the smaller amount of NADP formed indicates higher inhibition of aldose reductase. […]

The next test has as its target T2, aldehyde reductase (Rattus norvegicus, UniProt P51635).
T2 construct: The supernatant thus obtained was subjected to 30-60% ammonium sulfate fractionation; from tissue; host or cells: rat kidney (30-60% ammonium sulfate fraction of homogenate supernatant, dialyzed)
T2 sequence (P51635 1-325): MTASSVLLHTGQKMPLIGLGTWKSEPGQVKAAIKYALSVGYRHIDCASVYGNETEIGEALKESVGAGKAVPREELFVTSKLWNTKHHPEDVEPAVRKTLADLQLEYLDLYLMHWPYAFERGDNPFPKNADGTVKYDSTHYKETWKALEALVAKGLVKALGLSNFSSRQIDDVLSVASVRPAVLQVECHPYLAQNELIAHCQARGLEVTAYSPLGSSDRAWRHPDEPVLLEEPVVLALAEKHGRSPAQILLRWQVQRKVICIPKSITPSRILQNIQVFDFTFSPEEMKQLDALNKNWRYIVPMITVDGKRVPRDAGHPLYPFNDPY
Description: Ability of Selective Inhibition of Aldose Reductase (aldehyde reductase activity). It counts as biochemical. The conditions noted are these: for IC50: Table 4, rat kidney aldehyde reductase, 50 mM DL-glyceraldehyde, pH 7.0, read-out: 50% Inhibition conc [IC50 (M)] Aldehyde reductase. How it is done:
From rats under ether anesthesia, the kidneys were removed and stored at -20 ° C. The kidneys were homogenized in 0.1M phosphate buffer (pH 7.2) containing 5 mM 2-mercaptoethanol (kidneys: buffer =1:10 (by volume)), followed by centrifugation (14,000 rpm, 20 min., 4° C.), whereby a supernatant was obtained. The supernatant thus obtained was subjected to 30-60% ammonium sulfate fractionation. The resulting precipitates were collected by centrifugation (9,200 rpm, 20 min., 4° C.) The precipitates were suspended in a buffer with the same composition as described above. This suspension was dialyzed overnight at 4° C. against a buffer with the same composition, so that a crude aldehyde reductase solution was obtained. The activity of aldehyde reductase was determined in the same manner as for aldose reductase except for use of 0.1M phosphate buffer (pH 7.0) and as substrate 50 mM DL-glyceraldehyde.
The ability of selective inhibition of aldose reductase was determined by dividing the thus obtained 50% inhibition concentration [IC50 (M)] of aldehyde reductase by the above 50% inhibition concentration [IC50 (M)]of aldose reductase.

Test [1] deals with sorbitol contained in the sciatic nerves (aldose reductase). Description: Determination of Aldose Reductase Activity (In Vivo): sorbitol in sciatic nerves of STZ diabetic rats. The conditions noted are these: Rattus norvegicus, po, 336 h, Table 3, sciatic nerve sorbitol, read-out: Repression rate %; for inhibition in vivo at 30 mg/kg: 30 mg/kg orally for 2 weeks; for inhibition in vivo at 50 mg/kg: 50 mg/Kg orally. Also noted: species or system Wistar male rats. How it is done:
Streptozotocin (STZ) dissolved in 10 mM citrate buffer (pH 4.5) was administered intravenously to 6 week-old Wistar male rats […] in an amount of 65 mg/kg. 48 hours thereafter, blood was collected from the carotid […] of the rats. Rats with a blood glucose level of 200 mg/dl or more were classified as those with diabetes. Rats with a persistent high level of blood sugar were employed in the experiment. The blood glucose level was determined by the glucose oxidase method. 2 weeks after administration of STZ, a compound obtained in the following examples was suspended in purified water or 0.5% carboxy sodium cellulose solution. This solution was orally administered into a rat in an amount of 30 mg/kg for 2 weeks. 2 weeks after the adminstration, sciatic nerves were removed from the rat under ether anesthesia. The sciatic nerves were weighed and stored at -20° C. The amount of sorbitol contained in the sciatic nerves was determined as follows. That is, the sciatic nerves were subjected to extraction with 1 ml of purified water containing 10 gg/ml arabinitol at 100° C. for 20 min., followed by addition of 0.2 ml each of 0.2M barium hydroxide and 0.19M zinc sulfate. […] The resulting sample was […] then analyzed by gas chromatography. Sorbitol is an intermediate which occurs during convertion of glucose to fructose by aldose reductase, and this intermediate is accumulated together with fructose in the crystalline lenses and sciatic nerves, particularly under a high level of blood glucose. Therefore, the smaller amount of sorbitol formed indicates higher inhibition of aldose reductase.

The mark [2] stands for this setting: Table 3, rat lens aldose reductase, 20 mM glucose, 30 min, 30° C, pH 7.0, read-out: 50% Inhibition Conc. [IC50 (M)].
The mark [3] stands for this setting: Table 4, aldose reductase, read-out: 50% Inhibition conc [IC50 (M)] Aldose reductase.

In the case of `CCC(C)Oc1cc2oc(Sc3ccc(O)cc3)cc(=O)c2c(OC(C)C)c1OC` (stereo not drawn) [Example 16, 7-s-butoxy-2-(4-hydroxyphenylthio)-5-isopropoxy-6-methoxychromone], the inhibition at 10 µM at aldose reductase (Table 3) was 96.5%. Also, the IC50 was 3.8e-08 M at aldose reductase (setting [2]) and greater than 0.0001 M on aldehyde reductase.
For `CCC(CC)Oc1cc2oc(Sc3ccc(OC(=O)c4ccc(CN5CCN(C)CC5)cc4)cc3)cc(=O)c2c(O)c1OC` [Example 40, 7-(1-ethylpropoxy)-5-hydroxy-2-{4-[4-(4-methylpiperazinomethyl)benzoyloxy]phenylthio}-6-methoxychromone dihydrochloride], the inhibition in vivo at 30 mg/kg in test [1] is 27.9%.
With `COc1c(O)cc2oc(Oc3ccc(O)cc3)cc(=O)c2c1O` [Capillarisin, reference compound], at aldose reductase (Table 3), the inhibition at 10 µM was found to be 81%. Further, the IC50 on aldose reductase (setting [2]) is 1.6e-06 M. The inhibition in vivo at 100 mg/kg in test [1] (100 mg/kg orally) worked out at 18.9%.
In the case of `CCC(CC)Oc1cc2oc(Sc3ccc(O)cc3)cc(=O)c2c(O)c1OC` [Example 33, 7-(1-ethylpropoxy)-5-hydroxy-2-(4-hydroxyphenylthio)-6-methoxychromone], the inhibition at 10 µM on aldose reductase (Table 3) turned out to be 96.7%. The IC50 was found to be 1.1e-07 M at aldose reductase (setting [2]) and 0.0001 M on aldehyde reductase.
In the case of `CCC(CC)Oc1cc2oc(Sc3ccc(OC(=O)CN)cc3)cc(=O)c2c(OC)c1OC` [Compound 1 obtained in Example 37, 7-(1-ethylpropoxy)-5,6-dimethoxy-2-(4-glycyloxyphenylthio)chromone hydrochloride], the inhibition in vivo at 30 mg/kg in test [1] came to 51.6%.
For the molecule `COc1c(OC(C)C)cc2oc(Sc3ccc(O)cc3)cc(=O)c2c1OC` [Example 22, 5,6-dimethoxy-2-(4-hydroxyphenylthio)-7-isopropoxychromone], the inhibition at 10 µM on aldose reductase (Table 3) came out at 98.3%. Besides, the values for the IC50 on aldose reductase (setting [2]) and on aldehyde reductase were 3e-08 M and greater than 0.0001 M, respectively. Further, the inhibition in vivo at 50 mg/kg in test [1] amounted to 6.8%.
Regarding `COc1cc2oc(Sc3ccc(O)cc3)cc(=O)c2c(OC)c1OC` [Example 1, 2-(4-hydroxyphenylthio)-5,6,7-trimethoxychromone], the inhibition at 10 µM at aldose reductase (Table 3) stood at 97.3%. In addition, the figures for the IC50 on aldose reductase (setting [2]) and on aldehyde reductase were 1.1e-07 M and greater than 0.0001 M, respectively.
In the case of `CCOc1c(OC)c(OC(C)C)cc2oc(Sc3ccc(O)cc3)cc(=O)c12` [Example 18, 5-ethoxy-2-(4-hydroxyphenylthio)-7-isopropoxy-6-methoxychromone], the inhibition at 10 µM on aldose reductase (Table 3) is 98.7%. The IC50 was 1.8e-08 M on aldose reductase (setting [3]) and greater than 0.0001 M on aldehyde reductase. For the same molecule, the inhibition in vivo at 50 mg/kg in test [1] was 5.9%.
Consider `CCC(CC)Oc1cc2oc(Sc3ccc(OC(=O)c4ccc(CN5CCN(C)CC5)cc4)cc3)cc(=O)c2c(OC)c1OC` [Compound 2 obtained in Example 39, 5,6-dimethoxy-7-(1-ethylpropoxy)-2-{4-[4-(4-methylpiperazinomethyl)benzoyloxy]phenylthio}chromone dihydrochloride], for which the inhibition in vivo at 30 mg/kg in test [1] stood at 4.6%.
As for `CCC(CC)Oc1cc2oc(Sc3ccc(O)cc3)cc(=O)c2c(OC)c1OC` [Example 25, 5,6-dimethoxy-7-(1-ethylpropoxy)-2-(4-hydroxyphenylthio)chromone], the inhibition at 10 µM at aldose reductase (Table 3) was determined as 93.2%. Further, the IC50 is 6e-08 M at aldose reductase (setting [2]) and greater than 0.0001 M at aldehyde reductase. In addition, the inhibition in vivo at 50 mg/kg in test [1] is 16%.
With `CCOc1c(OC)c(OC(C)C)cc2oc(Sc3ccc(OC(=O)CN)cc3)cc(=O)c12` [Example 36, 5-ethoxy-2-(4-glycyloxyphenylthio)-7-isopropoxy-6-methoxychromone hydrochloride], the inhibition in vivo at 30 mg/kg in test [1] was determined as 12.3%.
Take `COc1c(OC(C)C)cc2oc(Sc3ccc(OC(=O)CN)cc3)cc(=O)c2c1OC` [Example 35, 5,6-dimethoxy-2-(4-glycyloxyphenylthio)-7-isopropoxychromone hydrochloride]: the inhibition in vivo at 30 mg/kg in test [1] was determined as 43.7%.
Take `COc1c(O)cc2oc(Sc3ccc(O)cc3)cc(=O)c2c1O` [Compound (Formula B), reference compound]: the inhibition at 10 µM at aldose reductase (Table 3) is 94.5%. Also, the IC50 at aldose reductase (setting [3]) amounted to 1.8e-07 M; on aldehyde reductase it was 1e-05 M. Besides, at aldehyde reductase (IC50 of aldehyde reductase divided by IC50 of aldose reductase), the “Ability of selective inhibition” value is listed as 55.5.
Take `CCC(C)Oc1cc2oc(Sc3ccc(O)cc3)cc(=O)c2c(OC)c1OC` (stereo not drawn) [Example 23, 7-s-butoxy-5,6-dimethoxy-2-(4-hydroxyphenylthio)chromone]: the inhibition at 10 µM at aldose reductase (Table 3) was 100%. Also, the IC50 is 4.4e-08 M at aldose reductase (setting [2]) and greater than 0.0001 M at aldehyde reductase.

The term inhibition denotes the relative decrease from the control value, in per cent. Broadly, the IC50 is the point on the concentration scale where inhibition reaches its midpoint.
